# Reference: US9073855B2, “BCL-2 selective apoptosis-inducing agents for the treatment of cancer and immune diseases” (AbbVie Inc., priority 2008, dated 2015)
# Columns and labels:
# GST-Bcl-2 = GST-Bcl-2 (Homo sapiens, UniProt P10415); assay: TR-FRET binding assay, GST-Bcl-2 with F-Bak peptide probe; details: TR-FRET Binding Affinity, GST-Bcl-2, F-Bak peptide probe
# Procedure: (§1) Tb-anti-GST antibody was purchased from Invitrogen (Catalog No. PV4216).
# (§2) Representative compounds were serially diluted in dimethyl sulfoxide (DMSO) starting at 50 μM (2× starting concentration; 10% DMSO) and 10 μL were transferred into a 384-well plate.
# (§3) The samples were then mixed on a shaker for 1 minute and incubated for an additional 3 hours at room temperature. For each assay, the probe/antibody and protein/probe/antibody were included on each assay plate as negative and positive controls, respectively. Fluorescence was measured on the ENVISION plate reader (Perkin Elmer) using a 340/35 nm excitation filter and 520/525 (F-Bak peptide) and 495/510 nm (Tb-labeled […] antibody) emission filters.
# (§4) The inhibition constant (Ki) is the dissociation constant of an enzyme-inhibitor complex or a protein/small molecule complex, wherein the small molecule is inhibiting binding of one protein to another protein or peptide. […] Inhibition constants were determined using Wang's equation (Wang Z-X., An Exact Mathematical Expression For Describing Competitive Binding Of Two Different Ligands To A Protein Molecule. FEBS Lett. 1995, 360:111-4).
# GST-Bcl-XL = GST-Bcl-XL (Homo sapiens, UniProt Q07817); assay: TR-FRET binding assay, GST-Bcl-XL with F-Bak peptide probe; details: TR-FRET Binding Affinity, GST-Bcl-XL, F-Bak peptide probe
# Chain of GST-Bcl-XL (Q07817 whole entry): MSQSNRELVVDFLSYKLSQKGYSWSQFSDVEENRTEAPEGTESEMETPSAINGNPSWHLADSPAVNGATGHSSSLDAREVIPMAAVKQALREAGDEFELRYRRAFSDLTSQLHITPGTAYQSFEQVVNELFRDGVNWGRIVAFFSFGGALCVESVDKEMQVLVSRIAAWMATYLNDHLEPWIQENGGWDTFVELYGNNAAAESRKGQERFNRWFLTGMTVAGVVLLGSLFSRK
# Procedure: as §1, §2, §3, §4
# Chain of GST-Bcl-2 (P10415 whole entry): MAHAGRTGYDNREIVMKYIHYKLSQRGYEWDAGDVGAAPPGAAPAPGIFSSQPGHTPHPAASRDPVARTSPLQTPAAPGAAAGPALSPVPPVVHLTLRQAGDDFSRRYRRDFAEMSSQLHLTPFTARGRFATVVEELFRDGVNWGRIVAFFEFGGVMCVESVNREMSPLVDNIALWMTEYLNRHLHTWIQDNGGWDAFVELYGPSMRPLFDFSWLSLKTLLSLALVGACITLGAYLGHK
SMILES,Ki (GST-Bcl-2),Ki (GST-Bcl-XL)
"CC(C)N(C)CCCNc1ccc(S(=O)(=O)NC(=O)c2ccc(N3CCN(Cc4ccccc4-c4ccc(Cl)cc4)CC3)cc2Oc2ccccc2)cc1[N+](=O)[O-] [Example 93, 4-{4-[(4′-chloro-1,1′-biphenyl-2-yl)methyl]piperazin-1-yl}-N-{[4-({3-[isopropyl(methyl)amino]propyl}amino)-3-nitrophenyl]sulfonyl}-2-phenoxybenzamide]",0.231 nM,13.9 nM
"CN1CCN(CCNc2ccc(S(=O)(=O)NC(=O)c3ccc(N4CCN(CC5=C(c6ccc(Cl)cc6)CC(C)(C)CC5)CC4)cc3Oc3ccc4[nH]ccc4c3)cc2[N+](=O)[O-])CC1 [Example 95, 4-(4-{[2-(4-chlorophenyl)-4,4-dimethylcyclohex-1-en-1-yl]methyl}piperazin-1-yl)-2-(1H-indol-5-yloxy)-N-[(4-{[2-(4-methylpiperazin-1-yl)ethyl]amino}-3-nitrophenyl)sulfonyl]benzamide]",0.06 nM,15.7 nM
"CN1CCN(CCNc2ccc(S(=O)(=O)NC(=O)c3ccc(N4CCN(CC5=C(c6ccc(Cl)cc6)CC(C)(C)CC5)CC4)cc3Oc3cccc4[nH]ccc34)cc2[N+](=O)[O-])CC1 [Example 101, 4-(4-{[2-(4-chlorophenyl)-4,4-dimethylcyclohex-1-en-1-yl]methyl}piperazin-1-yl)-2-(1H-indol-4-yloxy)-N-[(4-{[2-(4-methylpiperazin-1-yl)ethyl]amino}-3-nitrophenyl)sulfonyl]benzamide]",0.092 nM,11.2 nM
"CN1CCN(c2ccc(S(=O)(=O)NC(=O)c3ccc(N4CCN(CC5=C(c6ccc(Cl)cc6)CC(C)(C)CC5)CC4)cc3Oc3ccc4[nH]ccc4c3)cc2[N+](=O)[O-])CC1 [Example 107, 4-(4-{[2-(4-chlorophenyl)-4,4-dimethylcyclohex-1-en-1-yl]methyl}piperazin-1-yl)-2-(1H-indol-5-yloxy)-N-{[4-(4-methylpiperazin-1-yl)-3-nitrophenyl]sulfonyl}benzamide]",2.09 nM,130 nM
"CC1(C)CCC(CN2CCN(c3ccc(C(=O)NS(=O)(=O)c4ccc(NC5CCN(CC(F)(F)F)CC5)c([N+](=O)[O-])c4)c(Oc4cccc5[nH]ccc45)c3)CC2)=C(c2ccc(Cl)cc2)C1 [Example 108, 4-(4-{[2-(4-chlorophenyl)-4,4-dimethylcyclohex-1-en-1-yl]methyl}piperazin-1-yl)-2-(1H-indol-4-yloxy)-N-[(3-nitro-4-{[1-(2,2,2-trifluoroethyl)piperidin-4-yl]amino}phenyl)sulfonyl]benzamide]",2.34 nM,59.6 nM
"O=C(NS(=O)(=O)c1ccc(NCC2CCOCC2)c([N+](=O)[O-])c1)c1ccc(N2CCN(Cc3cc(OCCCN4CCCCC4)ccc3-c3ccc(Cl)cc3)CC2)cc1Oc1ccccc1 [Example 114, 4-(4-{[4′-chloro-4-(3-piperidin-1-ylpropoxy)-1,1′-biphenyl-2-yl]methyl}piperazin-1-yl)-N-({3-nitro-4-[(tetrahydro-2H-pyran-4-ylmethyl)amino]phenyl}sulfonyl)-2-phenoxybenzamide]",0.096 nM,14.3 nM
"O=C(NS(=O)(=O)c1ccc(NCC2CCOCC2)c([N+](=O)[O-])c1)c1ccc(N2CCN(Cc3cc(OCCN4CCOCC4)ccc3-c3ccc(Cl)cc3)CC2)cc1Oc1ccccc1 [Example 115, 4-(4-{[4′-chloro-4-(2-morpholin-4-ylethoxy)-1,1′-biphenyl-2-yl]methyl}piperazin-1-yl)-N-({3-nitro-4-[(tetrahydro-2H-pyran-4-ylmethyl)amino]phenyl}sulfonyl)-2-phenoxybenzamide]",0.176 nM,27.5 nM
"CN(C)CCCOc1ccc(-c2ccc(Cl)cc2)c(CN2CCN(c3ccc(C(=O)NS(=O)(=O)c4ccc(NCC5CCOCC5)c([N+](=O)[O-])c4)c(Oc4ccccc4)c3)CC2)c1 [Example 116, 4-[4-({4′-chloro-4-[3-(dimethylamino)propoxy]-1,1′-biphenyl-2-yl}methyl)piperazin-1-yl]-N-({3-nitro-4-[(tetrahydro-2H-pyran-4-ylmethyl)amino]phenyl}sulfonyl)-2-phenoxybenzamide]",0.036 nM,8.3 nM
"O=C(NS(=O)(=O)c1ccc(NCC2CCOCC2)c(S(=O)(=O)C(F)(F)F)c1)c1ccc(N2CCN(Cc3cc(OCCN4CCOCC4)ccc3-c3ccc(Cl)cc3)CC2)cc1Oc1ccccc1 [Example 117, 4-(4-{[4′-chloro-4-(2-morpholin-4-ylethoxy)-1,1′-biphenyl-2-yl]methyl}piperazin-1-yl)-2-phenoxy-N-({4-[(tetrahydro-2H-pyran-4-ylmethyl)amino]-3-[(trifluoromethyl)sulfonyl]phenyl}sulfonyl)benzamide]",2.3 nM,> 660 nM
"O=C(NS(=O)(=O)c1ccc(NCC2CCOCC2)c(S(=O)(=O)C(F)(F)F)c1)c1ccc(N2CCN(Cc3cc(OCCCN4CCCCC4)ccc3-c3ccc(Cl)cc3)CC2)cc1Oc1ccccc1 [Example 118, 4-(4-{[4′-chloro-4-(3-piperidin-1-ylpropoxy)-1,1′-biphenyl-2-yl]methyl}piperazin-1-yl)-2-phenoxy-N-({4-[(tetrahydro-2H-pyran-4-ylmethyl)amino]-3-[(trifluoromethyl)sulfonyl]phenyl}sulfonyl)benzamide]",0.769 nM,> 660 nM
"CN(C)CCCOc1ccc(-c2ccc(Cl)cc2)c(CN2CCN(c3ccc(C(=O)NS(=O)(=O)c4ccc(NCC5CCOCC5)c(S(=O)(=O)C(F)(F)F)c4)c(Oc4ccccc4)c3)CC2)c1 [Example 119, 4-[4-({4′-chloro-4-[3-(dimethylamino)propoxy]-1,1′-biphenyl-2-yl}methyl)piperazin-1-yl]-2-phenoxy-N-({4-[(tetrahydro-2H-pyran-4-ylmethyl)amino]-3-[(trifluoromethyl)sulfonyl]phenyl}sulfonyl)benzamide]",0.622 nM,230 nM
"CN(C)CCOc1cccc(-c2ccc(Cl)cc2)c1CN1CCN(c2ccc(C(=O)NS(=O)(=O)c3ccc(NCC4CCOCC4)c(S(=O)(=O)C(F)(F)F)c3)c(Oc3ccccc3)c2)CC1 [Example 124, 4-[4-({4′-chloro-3-[2-(dimethylamino)ethoxy]-1,1′-biphenyl-2-yl}methyl)piperazin-1-yl]-2-phenoxy-N-({4-[(tetrahydro-2H-pyran-4-ylmethyl)amino]-3-[(trifluoromethyl)sulfonyl]phenyl}sulfonyl)benzamide]",0.335 nM,73.7 nM
"O=C(NS(=O)(=O)c1ccc(NCC2CCOCC2)c([N+](=O)[O-])c1)c1ccc(N2CCN(Cc3cc(OCCN4CCOCC4)ccc3-c3ccc(Cl)cc3)CC2)cc1Oc1ccc2[nH]ccc2c1 [Example 127, 4-(4-{[4′-chloro-4-(2-morpholin-4-ylethoxy)-1,1′-biphenyl-2-yl]methyl}piperazin-1-yl)-2-(1H-indol-5-yloxy)-N-({3-nitro-4-[(tetrahydro-2H-pyran-4-ylmethyl)amino]phenyl}sulfonyl)benzamide]",0.459 nM,> 660 nM
"CN(C)CCNc1ccc(S(=O)(=O)NC(=O)c2ccc(N3CCN(Cc4ccccc4-c4ccc(Cl)cc4)CC3)cc2Oc2ccccc2)cc1[N+](=O)[O-] [Example 153, 4-{4-[(4′-chloro-1,1′-biphenyl-2-yl)methyl]piperazin-1-yl}-N-[(4-{[2-(dimethylamino)ethyl]amino}-3-nitrophenyl)sulfonyl]-2-phenoxybenzamide]",0.265 nM,93 nM
